Values quoted from earlier work, collected in patent EP1085805B1, “USE OF AT LEAST ONE ACID FROM THE CITRIC ACID CYCLE COMBINED WITH GLYCERINE AS A PESTICIDE” (Biolink Technologies AG, priority 1998, dated 1999).

Row | SMILES | LD50 Wert Ratte oral [mg/kg Körpergewicht]
1 | ClC1=C(Cl)[C@]2(Cl)[C@@H]3[C@@H]4C[C@@H]([C@H]5O[C@@H]45)[C@@H]3[C@@]1(Cl)C2(Cl)Cl [Dieldrin] | 56
2 | Cl[C@H]1[C@H](Cl)[C@@H](Cl)[C@@H](Cl)[C@H](Cl)[C@H]1Cl [Lindan] | 88
